Reference: patent US8765748B2, “Indazolyl, benzimidazolyl, benzotriazolyl substituted indolinone derivatives as kinase inhibitors useful in the treatment of cancer” (University Health Network, priority 2007, dated 2014)

Key:
[1] = test system: MDA-MB-468 basal breast cancer cell line; assay: Cell growth inhibition, Sulforhodamine B assay (SRB); assay type: cell-based; conditions: Homo sapiens, MDA-MB-468, 120 h; 5 days culture, SRB; read-out: Cell Line GI50 Range, MDA-MB-468
Description: (§1) Breast cancer cells (MCF-7, MDA-MB-468, HCC1954), colon cancer cells (SW620) and lung cancer cells (A549), together with human mammary epithelial primary cells (HMEC), were seeded (1000 to 4000 per 80 μl per well depending on the cell growth rate) into 96 well plates, 24 hours before compound overlay. Compounds were prepared as 10 mM stock solutions in 100% DMSO which were diluted with DMEM (Dulbecco's Modified Eagle's Medium) cell growth Medium (Invitrogen, Burlington, ON, Canada) containing 10% FBS (Fetal Bovine Serum) to concentrations ranging from 50 nM to 250 μM. Aliquots (20 μl) from each concentration were overlaid to 80 μl of the pre-seeded cells in the 96 well plates to make final concentrations of 10 nM to 50 μM. The cells were cultured for 5 days before the Sulforhodamine B assay (SRB) was performed to determine the compound's cell growth inhibition activity.
(§2) Sulforhodamine B (purchased from Sigma, Oakville, ON, Canada) is a water-soluble dye that binds to the basic amino acids of the cellular proteins. Thus, colorimetric measurement of the bound dye provides an estimate of the total protein mass that is related to the cell number. the cells are fixed in situ by gently aspirating off the culture media and adding 50 μl ice cold 10% Tri-chloroacetic Acid (TCA) per well and incubate at 4° C. for 30-60 min, The plates are washed with water five times and allowed to air dry for 5 min. Addition of 50 μl 0.4% (w/v) SRB solution in 1% (v/v) acetic acid to each well and incubatation for 30 min at RT completes the staining reaction. Following staining, plates are washed four times with 1% acetic acid to remove unbound dye and then allowed to air dry for 5 min. The stain is solubilized with 100 μl of 10 mM Tris pH10.5 per well. Absorbance is read at 570 nm.
(§3) The percentage (%) of relative growth inhibition was calculated by comparing to DMSO treated only cells (100%). GI50's were determined for compounds with cytotoxic activity. The GI50 was calculated using GraphPad PRISM software (GraphPad Software, Inc., San Diego, Calif., USA).

[2] = test system: MCF-7 luminal breast cancer cell line; assay: as above; assay type: cell-based; conditions: Homo sapiens, MCF7, 120 h; 5 days culture, SRB; read-out: Cell Line GI50 Range, MCF-7
Description: as §1, §2, §3

[3] = molecular target: T1, PLK1 (Homo sapiens, UniProt P53350); assay: PLK1 Inhibition Assay (Z-Lyte); assay type: biochemical; conditions: for IC50: 25 μM ATP, 8 nM PLK1, read-out: PLK1 IC50 Ranges; for inhibition at 10 µM: 10 μM compound, read-out: PLK1 relative inhibition percentage at a dose of 10 μM
T1 construct: purchased Invitrogen PV3501
Description: PLK1 inhibition was determined using the Z-Lyte assay kit from Invitrogen (cat #PV3802). […] The % inhibition values were determined according to the manufacturer's directions and IC50 values were obtained using a non-linear 4 point logistic curve fit (XLfit4, IDBS)

[4] = molecular target: T2, human PLK4 (Homo sapiens, UniProt O00444); assay: PLK4 Inhibition Assay (indirect ELISA); assay type: biochemical; conditions: 15 μM ATP, 4 nM GST-PLK4; read-out: PLK4 IC50 Ranges
T2 construct: amino terminal GST fusion of residues 1-391 of human PLK4; made in house; host or cells: E. coli
T2 sequence (O00444 1-391): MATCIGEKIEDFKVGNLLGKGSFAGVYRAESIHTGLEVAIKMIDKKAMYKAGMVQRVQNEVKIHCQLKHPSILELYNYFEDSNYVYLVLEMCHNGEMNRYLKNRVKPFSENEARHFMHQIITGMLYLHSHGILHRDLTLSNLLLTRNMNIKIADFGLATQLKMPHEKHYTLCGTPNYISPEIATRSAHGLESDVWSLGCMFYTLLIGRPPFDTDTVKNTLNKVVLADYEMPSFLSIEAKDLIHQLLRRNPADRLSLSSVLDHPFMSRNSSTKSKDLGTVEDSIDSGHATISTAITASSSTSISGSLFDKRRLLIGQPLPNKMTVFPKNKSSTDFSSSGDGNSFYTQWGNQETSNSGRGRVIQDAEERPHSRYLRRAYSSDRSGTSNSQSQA
How it was run: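 IC50 values, from 4-point logistic fitting, reflect remaining activity measured by indirect ELISA. Enzyme was GST-PLK4 treated with lambda phosphatase and given a 15-minute pre-incubation with compound before ATP start.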

[5] = test system: SW620 colon cancer cells; assay: Cell growth inhibition, Sulforhodamine B assay (SRB); assay type: cell-based; conditions: Homo sapiens, SW-620, 120 h, 5 days culture, read-out: Cell Line GI50 Range, SW-620
Description: as §1, §2, §3

[6] = test system: A549 lung cancer cells; assay: as above; assay type: cell-based; conditions: Homo sapiens, A549, 120 h, 5 days culture, read-out: Cell Line GI50 Range, A-549
Description: as §1, §2, §3

[7] = test system: HCC1954 basal breast cancer cell line; assay: as above; assay type: cell-based; conditions: Homo sapiens, HCC1954, 120 h, 5 days culture, read-out: Cell Line GI50 Range, HCC-1954
Description: as §1, §2, §3

[8] = molecular target: T3, PLK2 (Homo sapiens, UniProt Q9NYY3); assay: PLK2 Inhibition Assay (Z-Lyte); assay type: biochemical; conditions: for inhibition at 10 µM: 10 μM compound, read-out: PLK2 relative inhibition percentage at a dose of 10 μM
T3 construct: purchased Invitrogen PV4204
Description: (§4) PLK2 inhibition was determined using the Z-Lyte assay kit from Invitrogen (cat #PV3802). The assay was performed using the recommended manufacturer's instructions with 60 μM ATP and 133 nM PLK2 (Invitrogen cat #PV4204). The % inhibition values were determined according to the manufacturer's directions and IC50 values were obtained using a non-linear 4 point logistic curve fit (XLfit4, IDBS)

[9] = molecular target: T4, Aurora B (Homo sapiens, UniProt Q96GD4); assay: Aurora B Inhibition Assay (Z-Lyte); assay type: biochemical; conditions: for IC50: 128 μM ATP, 28 nM Aurora B, read-out: Aurora B IC50 Ranges
T4 construct: purchased Invitrogen PV3970
Description: as §4, with “Aurora B” for “PLK2”, “Invitrogen.” for “Invitrogen (cat #PV3802).”, “128” for “60”, “28” for “133”, “#PV3970).” for “#PV4204).”

[10] = molecular target: T5, Aurora A (Homo sapiens, UniProt O14965); assay: Aurora A Inhibition Assay (Z-Lyte); assay type: biochemical; conditions: for inhibition at 10 µM: 10 μM compound, read-out: Aurora A relative inhibition percentage at a dose of 10 μM; for IC50: 20 μM ATP, 12 nM Aurora A, read-out: Aurora A IC50 Ranges
T5 construct: purchased Invitrogen PV3612
T5 sequence (O14965 1-403): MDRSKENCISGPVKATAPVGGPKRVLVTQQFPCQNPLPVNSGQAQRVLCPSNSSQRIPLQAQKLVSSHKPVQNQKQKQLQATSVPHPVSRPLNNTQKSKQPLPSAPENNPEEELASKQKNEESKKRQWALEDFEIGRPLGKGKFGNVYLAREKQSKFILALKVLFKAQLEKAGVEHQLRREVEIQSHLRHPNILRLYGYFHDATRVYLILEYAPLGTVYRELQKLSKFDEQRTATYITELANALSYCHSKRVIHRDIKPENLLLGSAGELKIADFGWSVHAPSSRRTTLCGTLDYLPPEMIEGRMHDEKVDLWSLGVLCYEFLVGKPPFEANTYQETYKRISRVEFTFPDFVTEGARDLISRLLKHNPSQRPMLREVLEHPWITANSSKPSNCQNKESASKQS
Description: as §4, with “Aurora A” for “PLK2”, “Invitrogen.” for “Invitrogen (cat #PV3802).”, “20” for “60”, “12” for “133”, “#PV3612).” for “#PV4204).”

[11] = molecular target: T6, PLK3 (Homo sapiens, UniProt Q9H4B4); assay: PLK3 Inhibition Assay (Z-Lyte); assay type: biochemical; conditions: 100 μM ATP, 21 nM PLK3
T6 construct: purchased Invitrogen PV3812
Description: as §4, with “PLK3” for “PLK2”, “100” for “60”, “21” for “133”, “#PV3812).” for “#PV4204).”, “IDBS).” for “IDBS)”

T1 sequence (P53350 whole entry): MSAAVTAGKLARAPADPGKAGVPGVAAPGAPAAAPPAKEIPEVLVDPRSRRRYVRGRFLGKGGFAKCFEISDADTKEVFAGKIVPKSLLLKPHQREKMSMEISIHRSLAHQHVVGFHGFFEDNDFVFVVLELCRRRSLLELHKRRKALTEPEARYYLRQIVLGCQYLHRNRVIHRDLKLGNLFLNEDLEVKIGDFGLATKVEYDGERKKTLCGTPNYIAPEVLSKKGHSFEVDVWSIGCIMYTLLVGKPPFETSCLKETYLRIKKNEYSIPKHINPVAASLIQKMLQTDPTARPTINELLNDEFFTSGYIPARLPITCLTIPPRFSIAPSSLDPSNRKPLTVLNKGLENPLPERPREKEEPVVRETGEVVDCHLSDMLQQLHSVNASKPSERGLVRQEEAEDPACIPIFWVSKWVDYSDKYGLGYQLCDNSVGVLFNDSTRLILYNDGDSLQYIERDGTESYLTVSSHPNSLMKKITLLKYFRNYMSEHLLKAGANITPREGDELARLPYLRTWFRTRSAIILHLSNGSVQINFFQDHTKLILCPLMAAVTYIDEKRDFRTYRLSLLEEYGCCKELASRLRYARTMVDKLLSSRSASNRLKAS
T3 sequence (Q9NYY3 whole entry): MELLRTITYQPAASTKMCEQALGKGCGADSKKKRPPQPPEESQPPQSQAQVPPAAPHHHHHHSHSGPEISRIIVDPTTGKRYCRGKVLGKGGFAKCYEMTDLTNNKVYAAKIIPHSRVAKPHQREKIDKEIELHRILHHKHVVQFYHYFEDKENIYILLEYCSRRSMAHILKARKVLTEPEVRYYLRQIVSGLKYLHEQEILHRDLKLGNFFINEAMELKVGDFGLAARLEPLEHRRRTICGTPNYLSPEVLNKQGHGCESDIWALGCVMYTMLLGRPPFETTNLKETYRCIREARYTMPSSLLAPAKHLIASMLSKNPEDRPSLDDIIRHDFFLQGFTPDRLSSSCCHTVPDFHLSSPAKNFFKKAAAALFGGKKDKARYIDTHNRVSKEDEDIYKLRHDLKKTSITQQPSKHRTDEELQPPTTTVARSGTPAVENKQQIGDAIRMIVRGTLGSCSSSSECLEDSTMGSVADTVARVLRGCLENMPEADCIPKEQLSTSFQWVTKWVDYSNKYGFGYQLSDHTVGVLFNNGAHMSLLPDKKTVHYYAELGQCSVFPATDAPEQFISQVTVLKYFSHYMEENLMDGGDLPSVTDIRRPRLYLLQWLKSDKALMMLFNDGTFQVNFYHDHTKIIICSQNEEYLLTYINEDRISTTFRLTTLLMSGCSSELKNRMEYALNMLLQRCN
T4 sequence (Q96GD4 whole entry): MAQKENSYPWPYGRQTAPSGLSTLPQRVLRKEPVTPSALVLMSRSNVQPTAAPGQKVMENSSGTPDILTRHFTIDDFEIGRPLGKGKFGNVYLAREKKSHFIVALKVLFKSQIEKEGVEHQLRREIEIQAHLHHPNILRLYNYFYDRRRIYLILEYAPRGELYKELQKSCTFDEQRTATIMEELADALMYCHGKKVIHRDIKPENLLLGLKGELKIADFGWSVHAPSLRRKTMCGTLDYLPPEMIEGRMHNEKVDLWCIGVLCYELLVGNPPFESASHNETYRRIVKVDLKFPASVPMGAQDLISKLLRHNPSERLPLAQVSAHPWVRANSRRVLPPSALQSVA
T6 sequence (Q9H4B4 whole entry): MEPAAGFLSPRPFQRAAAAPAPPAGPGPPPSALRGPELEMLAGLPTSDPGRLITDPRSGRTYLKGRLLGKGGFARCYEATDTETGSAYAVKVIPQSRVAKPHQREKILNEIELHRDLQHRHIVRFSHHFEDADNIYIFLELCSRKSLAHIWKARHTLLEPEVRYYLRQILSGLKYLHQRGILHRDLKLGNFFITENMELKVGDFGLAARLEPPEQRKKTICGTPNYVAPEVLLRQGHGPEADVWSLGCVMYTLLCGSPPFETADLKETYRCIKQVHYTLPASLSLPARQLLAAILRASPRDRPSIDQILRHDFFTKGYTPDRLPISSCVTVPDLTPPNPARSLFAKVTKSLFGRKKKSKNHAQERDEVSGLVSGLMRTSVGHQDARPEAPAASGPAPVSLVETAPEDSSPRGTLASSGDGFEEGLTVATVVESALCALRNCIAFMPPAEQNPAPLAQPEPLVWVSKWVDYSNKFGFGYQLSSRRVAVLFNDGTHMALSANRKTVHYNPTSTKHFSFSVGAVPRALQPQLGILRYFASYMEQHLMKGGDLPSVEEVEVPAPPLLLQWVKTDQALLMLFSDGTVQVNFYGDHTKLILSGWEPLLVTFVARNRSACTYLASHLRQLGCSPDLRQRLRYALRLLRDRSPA

Compound: O=C1Nc2ccccc2/C1=C\c1ccc2[nH]cnc2c1 [Example A19, (E)-3-((1H-benzo[d]imidazol-5-yl)methylene)indolin-2-one]
- GI50 [1]: < 5 µM
- GI50 [2]: 5 to 20 µM
- IC50 [3]: 5 to 50 µM
- IC50 [4]: 5 to 50 µM

Compound: O=C1Nc2ccccc2/C1=C\c1ccc2c(C#Cc3cccnc3)n[nH]c2c1 [Example A147, (E)-3-((3-(pyridin-3-ylethynyl)-1H-indazol-6-yl)methylene)indolin-2-one]
- GI50 [5]: 20 to 50 µM
- GI50 [6]: > 50 µM
- GI50 [1]: 5 to 20 µM
- GI50 [7]: > 50 µM
- GI50 [2]: 20 to 50 µM
- IC50 [4]: < 5 µM

Compound: O=C1Nc2ccc(F)cc2/C1=C/c1ccc2cn[nH]c2c1 [Example A32, (Z)-3-((1H-indazol-6-yl)methylene)-5-fluoroindolin-2-one]
- inhibition at 10 µM [8]: < 50%
- IC50 [9]: < 5 µM
- GI50 [1]: 5 to 20 µM
- GI50 [2]: 5 to 20 µM
- IC50 [3]: 5 to 50 µM
- inhibition at 10 µM [10]: > 50%
- IC50 [4]: < 5 µM

Compound: CN1CCN(c2ccc(-c3n[nH]c4cc(C=C5C(=O)Nc6ccccc65)ccc34)cn2)CC1 (mixture of isomers) [Example A96, (E and Z)-3-((3-(6-(4-methylpiperazin-1-yl)pyridin-3-yl)-1H-indazol-6-yl)methylene)indolin-2-one]
- IC50 [9]: < 5 µM
- GI50 [5]: < 5 µM
- GI50 [6]: < 5 µM
- GI50 [1]: < 5 µM
- GI50 [7]: < 5 µM
- GI50 [2]: < 5 µM
- inhibition at 10 µM [3]: < 50%
- inhibition at 10 µM [10]: > 50%
- IC50 [4]: < 5 µM

Compound: CN1CCN(c2ccc(-c3n[nH]c4cc(C=C5C(=O)Nc6ccc(Br)cc65)ccc34)cn2)CC1 (mixture of isomers) [Example A150, (E and Z)-5-bromo-3-((3-(6-(4-methylpiperazin-1-yl)pyridin-3-yl)-1H-indazol-6-yl)methylene)indolin-2-one]
- GI50 [5]: < 5 µM
- GI50 [6]: < 5 µM
- GI50 [1]: < 5 µM
- GI50 [7]: < 5 µM
- GI50 [2]: < 5 µM
- IC50 [4]: < 5 µM

Compound: O=C1Nc2cc(Cl)ccc2/C1=C\c1ccc2[nH]nnc2c1 [Example A4, (E)-3-((1H-benzo[d][1,2,3]triazol-5-yl)methylene)-6-chloroindolin-2-one]
- GI50 [1]: 5 to 20 µM
- GI50 [2]: 5 to 20 µM
- IC50 [3]: 5 to 50 µM
- IC50 [4]: 5 to 50 µM

Compound: CNC(=O)c1ccc2c(c1)NC(=O)C2=Cc1ccc2cn[nH]c2c1 (mixture of isomers) [Example A10, (E and Z)-(3-((1H-indazol-6-yl)methylene)-N-methyl-2-oxoindoline-6-carboxamide]
- GI50 [1]: 20 to 50 µM
- GI50 [2]: 20 to 50 µM
- IC50 [3]: < 5 µM
- IC50 [4]: < 5 µM

Compound: O=C1Nc2ccc(Br)cc2/C1=C\c1ccc2[nH]ncc2c1 [Example A31, (E)-3-((1H-indazol-5-yl)methylene)-5-bromoindolin-2-one]
- IC50 ([8]; 60 μM ATP, 133 nM PLK2, read-out: PLK2 IC50 Ranges): 5 to 50 µM
- inhibition at 10 µM ([9]; 10 μM compound, read-out: Aurora B relative inhibition percentage at a dose of 10 μM): > 50%
- GI50 [1]: < 5 µM
- GI50 [2]: < 5 µM
- IC50 [3]: > 50 µM
- inhibition at 10 µM [10]: < 50%
- IC50 [4]: < 5 µM

Compound: COc1ccccc1/C=C/c1n[nH]c2cc(C=C3C(=O)Nc4ccccc43)ccc12 (mixture of isomers) [Example A59, (E and Z)-3-((3-((E)-2-methoxystyryl)-1H-indazol-6-yl)methylene)-indolin-2-one]
- inhibition at 10 µM [8]: < 50%
- IC50 [9]: < 5 µM
- GI50 [5]: < 5 µM
- GI50 [6]: 5 to 20 µM
- GI50 [1]: < 5 µM
- GI50 [7]: 5 to 20 µM
- GI50 [2]: < 5 µM
- inhibition at 10 µM [3]: < 50%
- IC50 [10]: < 5 µM
- IC50 [4]: < 5 µM

Compound: N#Cc1cccc2c1NC(=O)C2=Cc1ccc2cn[nH]c2c1 (mixture of isomers) [Example A45, (E and Z)-3-((1H-indazol-6-yl)methylene)-2-oxoindoline-7-carbonitrile]
- IC50 [11]: > 0.5 µM
- IC50 [4]: 5 to 50 µM

Compound: O=C1Nc2c(F)cccc2/C1=C\c1ccc2cn[nH]c2c1 [Example A42, (E)-3-((1H-indazol-6-yl)methylene)-7-fluoroindolin-2-one]
- inhibition at 10 µM [8]: > 50%
- IC50 [9]: < 5 µM
- IC50 [3]: > 50 µM
- IC50 [10]: < 5 µM
- IC50 [4]: < 5 µM

Compound: O=C1Nc2c(Cl)cccc2/C1=C\c1ccc2cn[nH]c2c1 [Example A43, (E)-3-((1H-indazol-6-yl)methylene)-7-chloroindolin-2-one]
- inhibition at 10 µM [8]: > 50%
- IC50 [9]: < 5 µM
- IC50 [3]: > 50 µM
- IC50 [10]: 5 to 50 µM
- IC50 [4]: < 5 µM
